Results reported in patent US20180312237A1, “BALLAST WATER TREATMENT DEVICE AND BALLAST WATER TREATMENT METHOD” (Kuraray Co., Ltd., priority 2015, published 2018).

Legend:
[1] = tested on: heterotrophic bacteria; assay: Number of heterotrophic bacteria (seawater medium) in sampled ballast water; type: cell-based
Description: In the present example, using a ballast water treatment device 100 shown in FIG. 8, 100 m^3 of seawater was supplied to a ballast tank 60 with a capacity of about 200 m^3. Specifically, first, a ballast pump 10 was activated to take in seawater from a pipe port 2A of a main pipe 2 by pump pressure. Microbes or particles in the seawater were removed by allowing the seawater to pass through a filter 20.
(§1) Next, by pouring a solution of TRO 2000 mg/L with dissolved sodium dichloroisocyanurate from a sterilizing component-introducing unit 40 to the seawater after being filtered by the above filter, the seawater was made to include a chlorine component. […]
(§2) With respect to each of the above sampled three kinds of ballast water (the ballast water immediately after filling, the ballast water after a lapse of 10 days after filling, and the ballast water in the ballast tank after the ballast water circulation), a TRO concentration and the number of heterotrophic bacteria (seawater medium) were measured. Additionally, as a comparison, the number of heterotrophic bacteria of the seawater was measured. As the TRO concentration, a value measured by a DPD colorimeter II (product of Hach Company) was adopted.

[2] = TRO concentration of sampled ballast water, DPD colorimeter II; type: physicochemical
Description: The ballast water treatment device 1 further includes a concentration measurement unit 41. […] The concentration measurement unit 41 is a sensor for measuring a chlorine concentration of ballast water in the ballast tank 60. Here, a “chlorine concentration (mg/L)” is measured as a total residual oxidant (TRO) concentration of seawater. The TRO concentration can be measured by a measuring instrument using a DPD reagent or the like. […] While in the present embodiment, the concentration measurement unit 41 is attached to the ballast tank 60, the position of the concentration measurement unit 41 is not limited thereto but can be any position that enables a concentration of a sterilizing component of the ballast water in the ballast tank 60 to be measured. For example, the concentration measurement unit 41 may be attached to the circulation pipe 80, or the concentration measurement unit 41 may be attached to the detour pipe 90, or the concentration measurement unit 41 may be attached to the main pipe 2 between the first connection part 2C and the second connection part 2D.
as §1, with “component. By stirring the seawater including a chlorine component by a mixer 50, a chlorine component in the seawater was made uniform to become ballast water, and the ballast tank 60 was filled with the ballast water.” for “component.”
as §2

[3] = ballast water after a lapse of 10 days after filling

With O=c1[n-]c(=O)n(Cl)c(=O)n1Cl.[Na+] [sodium dichloroisocyanurate] as the molecule, how does the “The number of bacteria” value [1, 3] read?
Its value is 4.6 × 10^5 cfu/cc.

What about the “The number of bacteria” value ([1]; ballast water immediately after filling, filtered seawater with poured TRO 2000 mg/L solution) of the same molecule?
The value was 7.4 × 10^1 cfu/cc.

What about the TRO concentration [2, 3] of the same molecule?
The TRO concentration was 0.2 mg/L.

And the TRO concentration ([2]; ballast water after circulation with additional sterilizing component)?
Its TRO concentration is 3.2 mg/L.

And the TRO concentration ([2]; ballast water immediately after filling)?
Its TRO concentration is 5.0 mg/L.
